Results taken from patent US10988730B2, “Sand worm lyophilisate and uses thereof” (HEMARINA, priority 2013, dated 2021).

How the values were obtained:
[1] = test system: Lactococcus lactis SB50; assay: Flask culture of Lactococcus lactis SB50, optical density; assay type: cell-based
Description: (§1) Sample Preparation • i) Flask culture: dissolution of the powders at 200 g/l then filtration of the supernatant and addition to the flasks. • ii) Bioreactor culture: direct addition to the reactors in a proportion of 1 g/l of powder before autoclaving.
Culture Conditions • i) Flask (100 ml, 0.5 and 11) culture:
(§2) The strain used is a strain of Lactococcus lactis SB50.
The tests were carried out overnight (16-18 h) at 30° C. with shaking at 180 rpm.
The composition of the culture medium for the strain is the following: glucose (1%), maltose (0.1%), yeast extract (2%) and minerals.
The culture conditions are the following: filling to 10% useful volume; a positive control with addition of hemin (hemoglobin of bovine origin) at 10 ppm final concentration is used.
(§3) The HEMARINA samples (powders in solution) were added post-sterilization after centrifugation. • ii) Bioreactor (11 useful volume) culture:
(§4) The optical density (OD) at 600 nm is measured for each culture.

[2] = test system: Lactococcus lactis SB50; assay: Bioreactor culture of Lactococcus lactis SB50 (OD, dry weight, NH4OH volume, viability); assay type: cell-based
Description: as §1, §2, §3
The tests were carried out overnight (15-16 h) at 30° C.
The composition of the culture medium for the strain is identical to that of the flasks, with an addition of 0.01% antifoam.
The culture conditions are the following: filling to 60% useful volume, pO2 regulated at 20% or 80% and pH regulated at 6.
1 g/l of powder are added directly to the culture medium before autoclaving.
as §4

[3] = overnight (15-16 h), 30° C., 1 g/l of powder

Question: Which results are given for hemin?
Answer: active concentration ([1]; equivalent to that of hemin): approximately 0.25 ppm; OD at 600 nm ([1]; overnight (16-18 h), 30° C., 180 rpm, hemin 10 ppm final concentration): 4.5; Dry weight [2, 3]: 3.4 g/L; Viability [2, 3]: 5.03E+09 CFU/ml; OD at 600 nm ([2]; overnight (15-16 h), 30° C., pH 6, 1 g/l of powder): 10.9; Volume NH4OH (corresponding to production of lactic acid) ([2]; pH regulated at 6, 1 g/l of powder): 12.3 mL
